Source: EP2265599B1, “CRYSTAL FORM OF PHENYLAMINOPYRIMIDINE DERIVATIVE” (Natco Pharma Limited, priority 2008, dated 2009)
“Also recorded” adds a separate entry of the source. Where a name gives a salt, the structure may show the parent alone.

Tests used:
[1] = Thermodynamic stability of the crystal forms at room temperature; format: physicochemical
[2] = Stability of Form-III crystal form under accelerated stress conditions in bulk and formulated capsule; format: physicochemical
Description: Table 5 - Stability of Form-III crystal form in bulk and formulated capsule

[3] = Heat stability of Form-III crystal form (heated in oil bath, examined by XRPD); format: physicochemical; conditions: 6 hours, form-I and Form-II below the detection level
Description: Pure Form-III crystal form (1 gm) prepared by the present process was placed in a boiling tube and heated gradually in oil bath. Then the substance was examined by XRPD.

[4] = test system: K562 luciferase expressing cells; test: Leukemic survival study, K562 luciferase expressing cells implanted intraperitoneally; format: in vivo, nude mice
Description: K562 luciferase expressing cells were implanted intraperitoneally into nude mice; the mice were scanned using the xenogeny IVIS image station after ip injections of luciferin does determine implantations. Drug treatment was started as in previous studies day 15 after implantation. The animals were given treatment till day 42, after which drug treatment was stopped and survival of the animals determined as per the animal care regulations. […] Drug treatment was withdrawn on day 42 post implantation and survival of animals determined.

[5] = test system: K562 luc human leukemia cells; test: Low dose oral treatment of nude mice implanted with K562 luc cells (luciferase expression); format: in vivo; conditions: oral administration
Description: Nude mice (nu/nu) were implanted with K562 cells (1x106) normal/luc via tail vein. Five mice were used per group and divided into 24 groups + 2 control. All groups were implanted with K562 normal/luc cells. Of the 24 groups, 12 were used for luciferase studies whereas the other 12 were used for blood smear count studies.
Drugs were administered by oral gavage (2% gum acacia and 2% SLS in an aqueous suspension).

[6] = test system: 4910 human glioma xenograft cells; test: Glioma radiation study, intracranially implanted 4910 cells; format: in vivo, Nude mice; conditions: terminated at day 40
Description: Nude mice were intracranially implanted with 4910 human glioma xenograft cells (1x10^6 cells). Ten days after implantation mice were treated with AN019, AN024 or temozolomide with or without radiation (5Gy/week). The experiment was terminated at day 40 post implantation.

Compound: Cc1ccc(NC(=O)c2cc(C(F)(F)F)cc(C(F)(F)F)c2)cc1Nc1nccc(-c2cccnc2)n1 [Form-I, (3,5-bis trifluoromethyl)-N-[4-methyl-3-(4-pyridin-3yl-pyrimidin-2ylamino)-phenyl]-benzamide]
- stability of crystal form at room temperature [1]: metastable at room temperature

Compound: Cc1ccc(NC(=O)c2cc(C(F)(F)F)cc(C(F)(F)F)c2)cc1Nc1nccc(-c2cccnc2)n1 [Form-II, (3,5-bis trifluoromethyl)-N-[4-methyl-3-(4-pyridin-3yl-pyrimidin-2ylamino)-phenyl]-benzamide]
- stability of crystal form at room temperature [1]: metastable at room temperature

Compound: Cc1ccc(NC(=O)c2cc(C(F)(F)F)cc(C(F)(F)F)c2)cc1Nc1nccc(-c2cccnc2)n1 [Form-III, (3,5-bis trifluoromethyl)-N-[4-methyl-3-(4-pyridin-3yl-pyrimidin-2ylamino)-phenyl]-benzamide]
- stability of crystal form at room temperature [1]: thermodynamically stable form at room temperature
- Polymorph content of bulk compound of formula I, Polymorph form detected ([2]; 0 Month at 40±2°C / 75 ±5% RH): Form-III
- Polymorph content of bulk compound of formula I, Polymorph form detected ([2]; 1 Month at 40±2°C / 75 ±5% RH): Form-III
- Polymorph content of bulk compound of formula I, Polymorph form detected ([2]; 2 Months at 40±2°C / 75 ±5% RH): Form-III
- Polymorph content of bulk compound of formula I, Polymorph form detected ([2]; 3 Months at 40±2°C / 75 ±5% RH): Form-III
- Polymorph content of bulk compound of formula I, Polymorph form detected ([2]; 6 Months at 40±2°C / 75 ±5% RH): Form-III
- Polymorph content of Formula I in formulated capsule, Polymorph form detected ([2]; 0 Month at 40±2°C / 75 ±5% RH): Form-III
- Polymorph content of Formula I in formulated capsule, Polymorph form detected ([2]; 1 Month at 40±2°C / 75 ±5% RH): Form-III
- Polymorph content of Formula I in formulated capsule, Polymorph form detected ([2]; 2 Months at 40±2°C / 75 ±5% RH): Form-III
- Polymorph content of Formula I in formulated capsule, Polymorph form detected ([2]; 3 Months at 40±2°C / 75 ±5% RH): Form-III
- Polymorph content of Formula I in formulated capsule, Polymorph form detected ([2]; 6 Months at 40±2°C / 75 ±5% RH): Form-III
- Polymorph form detected after heating ([3]; 110°C): Form-III
- Polymorph form detected after heating ([3]; 120°C): Form-III
- Polymorph form detected after heating ([3]; 130°C): non-metastable and stable when heated at 130 °C for 6 hours; also recorded: stable to heat even at 130 °C for 6 hours; also recorded: Form-III

Compound: Cc1ccc(NC(=O)c2ccc(CN3CCN(C)CC3)cc2)cc1Nc1nccc(-c2cccnc2)n1 [Imatinib, Imatinib mesylate, reference compound]
- leukemic symptoms after treatment withdrawal ([4]; drug treatment withdrawn on day 42): showed reoccurrences of leukemic symptoms after treatment withdrawal
- Blast cell count from blood smears after withdrawal of drug treatment ([4]; drug treatment withdrawn on day 42 (Fig. 21)): found to be ineffective
- mortality ([4]; treatment from day 15 till day 42, then withdrawn, AN024 death determined to be other than leukemia): showed mortality on day 55, 56, 57 and 58
- luciferase expression ([5]; 10mg/kg): did show a retardation of luciferase expression
- luciferase expression ([5]; 20mg/kg): did show a retardation of luciferase expression

Compound: Cn1nnc2c(C(N)=O)ncn2c1=O [Temozolomide, reference compound]
- animals cured / no observable intracranial tumor ([6]; with radiation (5Gy/week)): 2 of 10 animals
- animals cured / complete absence of intracranial tumours ([6]; without radiation, treatment from ten days after implantation): 3 of 10 animals
